Broadly, the pIC50 is the negative decadic logarithm of the IC50, by convention in mol/L.

We go through 33 molecules from patent US12187721B2, “Protein tyrosine phosphatase inhibitors” (Array BioPharma Inc., priority 2018, dated 2025).

pIC50: −log10 of the molar value. Counter-ions that a name gives are not always drawn. Like-named read-outs stand apart in the source and are kept apart here.

This assay has as its target T1, full-length SHP2 (His6-tagged SHP2(2-527)) (Homo sapiens, UniProt Q06124).
T1 construct: His6-tagged SHP2(2-527); His6; made in house; host or cells: E. coli
Description: SHP2 Enzymatic Assay (fluorescence intensity kinetic assay, DiFMUP hydrolysis). Type of assay: biochemical. The procedure, abridged:
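1 nM His6-SHP2(2-527), activated by 1 μM bis-phosphopeptide, hydrolysed 50 μM DiFMUP in 25 mM HEPES pH 7.4 with 1 mM DTT, 50 mM KCl and 2% DMSO. DiFMU fluorescence (Ex 355/Em 460 nm) was read kinetically for 15 min at ambient temperature.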

Where [1] appears, read: full-length SHP2 with 1 μM activating peptide, 50 μM DiFMUP, single assay or mean of multiple assays, read-out: Biological Example 1 IC50.

T1 sequence (Q06124 2-527): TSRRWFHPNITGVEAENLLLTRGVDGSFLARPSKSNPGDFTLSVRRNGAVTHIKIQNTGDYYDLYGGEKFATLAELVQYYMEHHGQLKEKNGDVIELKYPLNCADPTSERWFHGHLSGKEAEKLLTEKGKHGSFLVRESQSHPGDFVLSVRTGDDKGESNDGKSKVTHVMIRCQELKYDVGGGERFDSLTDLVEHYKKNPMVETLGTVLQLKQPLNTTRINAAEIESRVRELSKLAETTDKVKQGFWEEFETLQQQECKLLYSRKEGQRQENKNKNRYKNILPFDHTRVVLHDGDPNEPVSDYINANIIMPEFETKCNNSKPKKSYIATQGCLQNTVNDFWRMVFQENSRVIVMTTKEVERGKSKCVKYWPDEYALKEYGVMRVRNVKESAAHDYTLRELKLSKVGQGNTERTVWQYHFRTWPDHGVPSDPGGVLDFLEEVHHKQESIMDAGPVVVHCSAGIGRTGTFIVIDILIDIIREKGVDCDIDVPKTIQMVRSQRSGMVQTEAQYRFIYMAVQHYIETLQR

Molecule `Nc1ncc(Sc2ccc3nc(N4CCC5(CC4)Cc4ccccc4[C@H]5N)cnc3n2)c(Cl)c1Cl` [Example 119, (S)-1′-(6-((6-amino-4,5-dichloropyridin-3-yl)thio)pyrido[2,3-b]pyrazin-2-yl)-1,3-dihydrospiro[indene-2,4′-piperidin]-1-amine] gave a pIC50 of 7.41.

`Cc1nc2nc(Sc3cccc(Cl)c3Cl)ccc2nc1N1CCC(C)(N)CC1` [Example 120, 1-(6-((2,3-dichlorophenyl)thio)-3-methylpyrido[2,3-b]pyrazin-2-yl)-4-methylpiperidin-4-amine] showed a pIC50 of 6.20. `C[C@@H]1C[C@H](N)CCN1c1cnc2nc(Sc3ccnc(N)c3Cl)ccc2n1` [Example 121, 4-((2-((2R,4R)-4-amino-2-methylpiperidin-1-yl)pyrido[2,3-h]pyrazin-6-yl)thio)-3-chloropyridin-2-amine] gave a pIC50 of 7.00. The same measure, in the same setting: under `C[C@@H]1C[C@@H](N)CCN1c1cnc2nc(Sc3ccnc(N)c3Cl)ccc2n1` [Example 122, 4-((2-((2R,4S)-4-amino-2-methylpiperidin-1-yl)pyrido[2,3-b]pyrazin-6-yl)thio)-3-chloropyridin-2-amine dihydrochloride] stands 7.19; under `N[C@@H]1c2ccccc2CC12CCN(c1cnc3nc(Oc4ccc(F)cc4)ccc3n1)CC2` [Example 123, (S)-1′-(6-(4-fluorophenoxy)pyrido[2,3-b]pyrazin-2-yl)-1,3-dihydrospiro[indene-2,4′-piperidin]-1-amine], 7.68. `Nc1nccc(Sc2ccc3nc(N4CC5(Cc6ccccc6[C@H]5N)C4)cnc3n2)c1Cl` [Example 124, (R)-1-(6-((2-amino-3-chloropyridin-4-yl)thio)pyrido[2,3-b]pyrazin-2-yl)-1′,3′-dihydrospiro[azetidine-3,2′-inden]-1′-amine]: the pIC50 is 7.28. `Cc1cccc2c1CC1(CCN(c3cnc4nc(Sc5ccnc(N)c5Cl)ccc4n3)CC1)[C@@H]2N` [Example 126, (S)-1′-(6-((2-amino-3-chloropyridin-4-yl)thio)pyrido[2,3-b]pyrazin-2-yl)-4-methyl-1,3-dihydrospiro[indene-2,4′-piperidin]-1-amine] gave a pIC50 of 7.52.

Regarding `N[C@@H]1c2ccccc2CC12CCN(c1cnc3nc(Sc4cnc5ccc(Cl)cn45)ccc3n1)CC2` [Example 127, (S)-1′-(6-((6-chloroimidazo[1,2-a]pyridin-3-yl)thio)pyrido[2,3-b]pyrazin-2-yl)-1,3-dihydrospiro[indene-2,4′-piperidin]-1-amine], the pIC50 is 7.09. With `Nc1nccc(Sc2ccc3nc(N4CCC(N)(CCO)CC4)cnc3n2)c1Cl` [Example 128, 2-(4-amino-1-(6-((2-amino-3-chloropyridin-4-yl)thio)pyrido[2,3-b]pyrazin-2-yl)piperidin-4-yl)ethan-1-ol], the pIC50 was 7.00. Still for that read-out and setting: as for `CC(C)(O)CC1(N)CCN(c2cnc3nc(Sc4ccnc(N)c4Cl)ccc3n2)CC1` [Example 129, 1-(4-amino-1-(6-((2-amino-3-chloropyridin-4-yl)thio)pyrido[2,3-b]pyrazin-2-yl)piperidin-4-yl)-2-methylpropan-2-ol], the figure is 7.47. Consider `CCC1(N)CCN(c2cnc3nc(Sc4ccnc(N)c4Cl)ccc3n2)CC1` [Example 130, 4-((2-(4-amino-4-ethylpiperidin-1-yl)pyrido[2,3-b]pyrazin-6-yl)thio)-3-chloropyridin-2-amine], for which the pIC50 was 7.02. For the molecule `C[C@@H]1OCC2(CCN(c3cnc4nc(Sc5ccnc6[nH]cnc56)ccc4n3)CC2)[C@@H]1N` [Example 131, (3S,4S)-8-(6-((3H-imidazo[4,5-b]pyridin-7-yl)thio)pyrido[2,3-b]pyrazin-2-yl)-3-methyl-2-oxa-8-azaspiro[4.5]decan-4-amine], the pIC50 is 6.38. Consider `Nc1nccc(Sc2ccc3nc(N4CCC5(CC4)Oc4ccccc4[C@H]5N)cnc3n2)c1Cl` [Example 132], for which the pIC50 was 7.51. For `Nc1cc(Sc2ccc3nc(N4CCC5(CC4)Cc4ncccc4[C@H]5N)cnc3n2)c(Cl)cn1` [Example 133, (S)-1′-(6-((2-amino-5-chloropyridin-4-yl)thio)pyrido[2,3-b]pyrazin-2-yl)-5,7-dihydrospiro[cyclopenta[b]pyridine-6,4′-piperidin]-5-amine], the pIC50 is 7.04. Same read-out and setting: as for `C[C@@H]1OCC2(CCN(c3cnc4nc(N5CCCc6ncccc65)ccc4n3)CC2)[C@@H]1N` [Example 135, (3S,4S)-8-(6-(3,4-dihydro-1,5-naphthyridin-1(2H)-yl)pyrido[2,3-b]pyrazin-2-yl)-3-methyl-2-oxa-8-azaspiro[4.5]decan-4-amine], the figure is 5.40; as for `C[C@@H]1OCC2(CCN(c3cnc4nc(Sc5ccnc(N)c5C(F)(F)F)ccc4n3)CC2)[C@@H]1N` [Example 136, (3S,4S)-8-(6-((2-amino-3-(trifluoromethyl)pyridin-4-yl)thio)pyrido[2,3-b]pyrazin-2-yl)-3-methyl-2-oxa-8-azaspiro[4.5]decan-4-amine], 6.80. As for `Nc1nccc(Sc2ccc3nc(N4C[C@H]5C[C@@H](C4)[C@H]5N)cnc3n2)c1Cl` [Example 137], the negative logarithm of the IC50 (pIC50) under setting [1] is 7.19. On to `CC(C)(C)OC(=O)N[C@H]1[C@@H]2C[C@H]1CN(c1cnc3nc(Sc4ccnc(N)c4Cl)ccc3n1)C2` [Example 138], for which the pIC50 was 6.24. In turn, `Cc1c[nH]c2nccc(Sc3ccc4nc(N5CCC6(CC5)CO[C@@H](C)[C@H]6N)cnc4n3)c12` [Example 139, (3S,4S)-3-methyl-8-(6-((3-methyl-1H-pyrrolo[2,3-b]pyridin-4-yl)thio)pyrido[2,3-b]pyrazin-2-yl)-2-oxa-8-azaspiro[4.5]decan-4-amine] gave a pIC50 of 7.03.

In the case of `C[C@@H]1OCC2(CCN(c3cnc4nc(Sc5cc(N)nc6[nH]ccc56)ccc4n3)CC2)[C@@H]1N` [Example 140, (3S,4S)-8-(6-((6-amino-1H-pyrrolo[2,3-b]pyridin-4-yl)thio)pyrido[2,3-b]pyrazin-2-yl)-3-methyl-2-oxa-8-azaspiro[4.5]decan-4-amine], the pIC50 was 7.12. Same read-out and setting: under `C[C@@H]1OCC2(CCN(c3cnc4nc(Sc5c(F)cnc6[nH]ccc56)ccc4n3)CC2)[C@@H]1N` [Example 141, (3S,4S)-8-(6-((5-fluoro-1H-pyrrolo[2,3-b]pyridin-4-yl)thio)pyrido[2,3-b]pyrazin-2-yl)-3-methyl-2-oxa-8-azaspiro[4.5]decan-4-amine] stands 7.13; under `CC1CCN(c2cnc3nc(Sc4ccnc(N)c4Cl)ccc3n2)CC1` [Example 143, 3-chloro-4-((2-(4-methylpiperidin-1-yl)pyrido[2,3-b]pyrazin-6-yl)thio)pyridin-2-amine], 5.76.

`C[C@@H]1OCC2(CCN(c3cnc4nc(Sc5cc(N)ncc5Cl)ccc4n3)CC2)[C@@H]1N` [Example 144, (3S,4S)-8-(6-((2-amino-5-chloropyridin-4-yl)thio)pyrido[2,3-b]pyrazin-2-yl)-3-methyl-2-oxa-8-azaspiro[4,5]decan-4-amine] showed a pIC50 of 7.05.

In the case of `Nc1nccc(Sc2ccc3nc(N4CCC5(CC4)Cc4cc(F)ccc4[C@H]5N)cnc3n2)c1Cl` [Example 145, (S)-1′-(6-((2-amino-3-chloropyridin-4-yl)thio)pyrido[2,3-b]pyrazin-2-yl)-5-fluoro-1,3-dihydrospiro[indene-2,4′-piperidin]-1-amine], the pIC50 under setting [1] was 7.57. For `CNc1nccc(Sc2ccc3nc(N4CCCC(C)(N)CC4)cnc3n2)c1Cl` (stereo not drawn) [Example 146, 1-(6-((3-chloro-2-(methylamino)pyridin-4-yl)thio)pyrido[2,3-b]pyrazin-2-yl)-4-methylazepan-4-amine], the pIC50 was 7.05. As to `Cc1nccc(Sc2ccc3nc(N4CCCC(C)(N)CC4)cnc3n2)c1Cl` (stereo not drawn) [Example 147, 1-(6-((3-chloro-2-methylpyridin-4-yl)thio)pyrido[2,3-b]pyrazin-2-yl)-4-methylazepan-4-amine], the pIC50 was 7.30. On the same count and under the same terms, as for `CC1(N)CCN(c2cnc3nc(-c4cccc(F)c4Cl)ccc3n2)CC1` [Example 152, 1-(6-(2-chloro-3-fluorophenyl)pyrido[2,3-b]pyrazin-2-yl)-4-methylpiperidin-4-amine], the figure is 7.52; as for `COc1c(Sc2ccc3nc(N4CCC5(CC4)CO[C@@H](C)[C@H]5N)cnc3n2)ccnc1N` [Example 153, (3S,4S)-8-(6-((2-amino-3-methoxypyridin-4-yl)thio)pyrido[2,3-b]pyrazin-2-yl)-3-methyl-2-oxa-8-azaspiro [4.5] decan-4-amine], 6.79. As to `Nc1nccc(Sc2ccc3nc(N4CCCC45CC(N)C5)cnc3n2)c1Cl` (stereo not drawn) [Example 154, 5-(6-((2-amino-3-chloropyridin-4-yl)thio)pyrido[2,3-b]pyrazin-2-yl)-5-azaspiro[3.4]octan-2-amine], the pIC50 is 5.92. On to `COc1cccc2c1CC1(CCN(c3cnc4nc(Sc5ccnc(N)c5Cl)ccc4n3)CC1)[C@@H]2N` [Example 155], for which the pIC50 is 7.35. As to `Cc1nccc(Sc2ccc3nc(N4CCC5(CC4)Cc4cc(O)ccc4[C@H]5N)cnc3n2)c1Cl` [Example 156, (S)-1-amino-1′-(6-((3-chloro-2-methylpyridin-4-yl)thio)pyrido[2,3-b]pyrazin-2-yl)-1,3-dihydrospiro[indene-2,4′-piperidin]-5-ol], the pIC50 was 7.49. The molecule `C[C@@H]1OCC2(CCN(c3cnc4nc(Sc5ccnc6c5CCC6O)ccc4n3)CC2)[C@@H]1N` (stereo partly drawn) [Example 157, 4-((2-((3S,4S)-4-amino-3-methyl-2-oxa-8-azaspiro[4.5]decan-8-yl)pyrido[2,3-b]pyrazin-6-yl)thio)-6,7-dihydro-5H-cyclopenta[b]pyridin-7-ol] had a pIC50 of 6.55. The same measure, in the same setting: under `Nc1nccc(Sc2ccc3nc(N4CCC5(CC4)Cc4cccnc4C5N)cnc3n2)c1Cl` (stereo not drawn) [Example 158, 1′-(6-((2-amino-3-chloropyridin-4-yl)thio)pyrido[2,3-b]pyrazin-2-yl)-5,7-dihydrospiro[cyclopenta[b]pyridine-6,4′-piperidin]-7-amine] stands 6.97.
